Test results taken from PMC4603303, “Activity of Novel Synthetic Peptides against Candida albicans” (Scientific Reports, 2015).
≈ marks a conversion by molar mass, not a printed value.

Legend:
Candida strains = assay: MIC, broth microdilution, range stated over several Candida strains; type: cell-based, Candida spp.
Protocol: (§1) C. albicans strains SC5314 and ATCC 90028, C. krusei ATCC 6258 and C. parapsilosis ATCC 22019 were used in the study. The strains were stored at −80°C in nutrient broth supplemented with 2.0% glycerol stock. Prior to experimentation, each strain was streaked for single colonies on Sabouraud Dextrose (SDA) agar plates and incubated overnight at 37°C.
(§2) Antifungal activity of the designed peptides was determined according to a standardized broth microdilution method (Clinical and Laboratory Standards Institute (CLSI) document M27-A2). Briefly, the yeast colonies from 24- hour-old cultures of Candida species were picked and resuspended in 5 mL of sterile 0.145 mol/L saline and adjusted to cell density of 1 × 10^6 to 5 × 10^6 cells/ml. The yeast stock suspension was then diluted to obtain a starting inoculum of 5.0 × 10^2 to 2.5 × 10^3 cells/ml. […] The drugs were dissolved in DMSO and prepared to a stock concentration of 25 mg/L and 50 mg/L, respectively. […] 100 μL of standardized yeast suspension was then added to each well. Plates were incubated for 48 hours at 37°C. The minimum inhibitory concentration (MIC) was defined as the lowest concentration that inhibited 90% growth of Candida species. The MICs were determined three times and each time in duplicate.

[1] = system: C. albicans SC5314 biofilms; assay: Biofilm reduction assay (XTT); type: cell-based, Candida albicans; conditions: minimum concentration giving 50% reduction of viability of 24 h-old biofilm, 24 h treatment, 1-4× MIC tested
Protocol: Biofilms of C. albicans were formed on commercially available pre-sterilized, polystyrene, flat bottomed 96 well microtitre plates as described by Jin et al with modification. Firstly, a standardized yeast suspension (10^7 cells/ml) of C. albicans SC5314 was prepared by suspending colonies from 24-hours old culture in RPMI 1640 medium and adjusted to an optical density of 0.38–0.39 at 520 nm. 100 μL of yeast suspension was dispensed into each well of a microtitre plate using a multichannel pipette and the plates were incubated in a shaking incubator at 37°C with 75 rpm for 90 minutes to allow adherence of yeast on the surface of each well. After the adhesion phase, the non-adherent cells were removed and each well was washed twice with 150 μL PBS. 100 μL of RPMI 1640 medium was transferred to each washed well and the plates were incubated at 37°C in a shaking incubator at 75 rpm for 24 hours to allow biofilm formation. Following biofilm phase, the medium was aspirated and each well was washed twice gently with 200 μL PBS to remove non-adherent cells. Residual PBS was removed by inverting the plates over an absorbent paper before addition of peptides. […] Antifungal agent-free wells and biofilm-free wells were included as positive and negative controls. After treatment with peptides, the medium was removed and each well was washed twice with 200 μL PBS. The biofilm formation was quantified by using XTT reduction assay as described below. Each experiment was repeated three times in duplicate.
XTT reduction assay was performed according to the method adapted from Jin et al.[44] Briefly, XTT (Sigma) was dissolved to a concentration of 1 mg/ml using sterile PBS. XTT solution was then filter-sterilized using a 0.22 μm-pore-size filter and kept at −70°C prior to use. 0.4 mM menadione solution was prepared by dissolving menadione (Sigma) with acetone. The menadione solution was filter-sterilized and kept at −70°C before use. Prior to each assay, XTT solution was thawed and mixed with menadione solution at a volume ratio of 20:1. After washing, a total volume of 200 μL of XTT-menadione mixture (158 μL of PBS, 40 μL of XTT and 2 μL of menadione) was added to each prewashed biofilm and control wells. The plates were incubated in the dark for 2 hours at 37°C. 100 μL of the solution was transferred to new wells and the colorimetric change in the solution was measured using a microtiter plate reader at 490 nm. Antibiofilm activity of the peptides and conventional antifungals was expressed as the biofilm-eradicating concentration 2 (BEC-2), which is defined as the minimum concentration of the peptides resulting in 50% reduction of the biofilm viability compared to the growth control.

Candida krusei ATCC 6258 = assay: MIC, broth microdilution (CLSI M27-A2); type: cell-based; conditions: Pichia kudriavzevii, ATCC6258; C. krusei ATCC 6258; RPMI 1640-MOPS, 48 h, 37°C; lowest concentration inhibiting 90% growth; three times in duplicate; read-out: Minimum Inhibitory Concentration (MIC)
Protocol: as §1, §2

[2] = system: Candida albicans ATCC 90028; assay: MIC, broth microdilution (CLSI M27-A2); type: cell-based; conditions: Candida albicans, ATCC90028; C. albicans ATCC 90028; RPMI 1640-MOPS, 48 h, 37°C; lowest concentration inhibiting 90% growth; three times in duplicate; read-out: Minimum Inhibitory Concentration (MIC)
Protocol: as §1, §2

Candida albicans SC 5314 = assay: MIC, broth microdilution (CLSI M27-A2); type: cell-based; conditions: Candida albicans, SC5314; C. albicans SC 5314; RPMI 1640-MOPS, 48 h, 37°C; lowest concentration inhibiting 90% growth; three times in duplicate; read-out: Minimum Inhibitory Concentration (MIC)
Protocol: as §1, §2

[3] = system: Candida parapsilosis ATCC 22019; assay: MIC, broth microdilution (CLSI M27-A2); type: cell-based; conditions: Lodderomyces parapsilosis, ATCC22019; C. parapsilosis ATCC 22019; RPMI 1640-MOPS, 48 h, 37°C; lowest concentration inhibiting 90% growth; three times in duplicate; read-out: Minimum Inhibitory Concentration (MIC)
Protocol: as §1, §2

C. albicans SC5314 = assay: Time killing assay; type: cell-based, Candida albicans; conditions: 2× MIC
Protocol: A fungal suspension was adjusted to a 0.5 McFarland turbidity standard with cell density of 1 × 10^6 to 5 × 10^6 cells/ml. 100 μL of adjusted yeast suspension was exposed to 900 μL of RPMI medium containing peptide, yielding a starting inoculum of approximately 10^5 cells/ml. The solutions were incubated at 37°C with agitation. At the predetermined time interval of 0, 1, 2, 4 and 6 hours, 10 μL or 30 μL of the samples were removed, serially diluted with phosphate-buffered saline (PBS) and plated on SDA plates to allow colony counts after 24 hours of incubation. Controls for yeast growth and antifungal agents were also performed. The lower limit of accurate and reproducible quantitation was 100 CFU/ml. Results were obtained from three independent experiments.

VK2/E6E7 cell line = assay: cells; conditions: Homo sapiens
Protocol: (§3) The human normal vaginal epithelial cell line VK2/E6E7 (ATCC® CRL-2616™) and human normal esophagus epithelial cell line Het-1A (ATCC® CRL-2692™) were used for cytotoxicity testing. VK2/E6E7 cell line was grown in Keratinocyte-Serum Free medium (GIBCO-BRL 17005-042) supplemented with 0.1 ng/ml human recombinant EGF, 0.05 mg/ml bovine pituitary extract, and 44.1 mg/L calcium chloride. […] Cell viability was measured by using CellTiter 96® Aqueous Non-Radioactive Cell Proliferation Assay (Promega, USA) and the colourimetric changes were determined at 490 nm using a microplate reader. […] Results were recorded by averaging three repeated experiments and each experiment was performed in duplicate.

Het-1A cell line = assay: cells; conditions: Homo sapiens, HET-1A
Protocol: as §3

Structure (SMILES)	MIC values, range (Candida strains; range against four Candida strains (C. albicans and non-albicans species)) [mg/L]	BEC-2 values [1] [mg/L]	BEC-2 values ([1]; listed as amphotericin B) [mg/L]	MIC (Candida krusei ATCC 6258) [µg/mL]	MIC [2] [µg/mL]	MIC (Candida albicans SC 5314) [µg/mL]	MIC [3] [µg/mL]	% killing (C. albicans SC5314; within 2 hours) [%]	mean log reduction in viable cells (C. albicans SC5314; within 2 hours, RPMI, 37°C, mean ± SD of three experiments) [log CFU/mL]	IC50 (VK2/E6E7 cell line; 24 h) [µg/mL]	IC50 (VK2/E6E7 cell line; 48 h) [µg/mL]	IC50 (VK2/E6E7 cell line; 72 h) [µg/mL]	IC50 (Het-1A cell line; 24 h) [µg/mL]	IC50 (Het-1A cell line; 48 h) [µg/mL]	IC50 (Het-1A cell line; 72 h) [µg/mL]	MIC values, range (Candida strains; range for two C. albicans strains and C. parapsilosis) [mg/L]	BEC-2 values ([1]; listed as fluconazole) [mg/L]	reduction in yeast growth (C. albicans SC5314) [%]
C[C@@H]1[C@H](O)[C@@H](C)/C=C/C=C/C=C/C=C/C=C/C=C/C=C/[C@H](O[C@@H]2O[C@H](C)[C@@H](O)[C@H](N)[C@@H]2O)C[C@@H]2O[C@](O)(C[C@@H](O)C[C@@H](O)[C@H](O)CC[C@@H](O)C[C@@H](O)CC(=O)O[C@H]1C)C[C@H](O)[C@H]2C(=O)O [Amphotericin B, reference compound]	0.5 to 1	<1	> 1	1 (≈ 1.08 µM)	0.5 (≈ 0.541 µM)	1 (≈ 1.08 µM)	1 (≈ 1.08 µM)	> 99.99	5.44 ± 0.07	8.13 ± 4.54 (≈ 8.8 µM)	7.64 ± 2.95 (≈ 8.27 µM)	15.3 ± 3.72 (≈ 16.6 µM)	9.91 ± 3.35 (≈ 10.7 µM)	7.78 ± 1.7 (≈ 8.42 µM)	9.1 ± 0.98 (≈ 9.85 µM)	–	–	–
OC(Cn1cncn1)(Cn1cncn1)c1ccc(F)cc1F [Fluconazole, reference compound]	–	>4	–	64 (≈ 209 µM)	2 (≈ 6.53 µM)	1 (≈ 3.27 µM)	1 (≈ 3.27 µM)	–	–	–	–	–	–	–	–	1 to 2	> 4	> 99.9
